Assay [1] concerns cockerels of broilers. Briefly: Survival rate and growing rate of cockerels of broilers fed the compound in rye-rations for 14 days. It is filed as in vivo, cockerels of broilers (Habbard). Particulars: for Gain (Ratio): control = 100.0; for Gain: mean. Here is the method:
The feeds prepared by adding 0, 1.0, 10.0 and 100.0 ppm of 8,9-anhydroerythromycin A 6,9-hemiketal propargyl chloride respectively to rye-rations, were given to 160 cockerels of broilers (Habbard) of day zero, as 10 cockerels/group×4 repeats/ section, and allowed to be taken freely and continuously for 14 days. The cockerels were positioned to be accommodated for each groups by the Latin square method in an electrically heated battery brooder (the inside thereof is heated at a temperature of 32° C.). The survival rate and the growing rate were measured at 7 and 14 days of age.
Experimental Example 2 was repeated except for changing the administration compound to ethyl-nor-8,9-anhydroerythromycin A 6,9-hemiketal. The result of measuring the survival rate and the growing rate in cockerals of broilers (Habbard) of day zero was shown in Table 8.

Assay [2] concerns Clostridium perfringens. It is filed as in vivo.
The test system of assay [3] is Staphylococcus aureus ATCC 6538P. As to the kind of experiment: MIC, Staphylococcus aureus ATCC 6538P (SA(1)). It is filed as cell-based. The following applies: Staphylococcus aureus, ATCC6538P, read-out: MIC SA (1). The source says:
(§1) The minimum inhibitory concentrations (MIC: mcg/ml) of the erythromycin derivatives of the present invention and the control erythromycin derivative (*) as the known growth promoting agent on typical test bacteria are shown in the following Tables 1 to 5.
SA(1): Staphylococcus aureus ATCC 6538P

The subject of assay [4] is Staphylococcus aureus FDA 209P. Briefly: MIC, Staphylococcus aureus FDA 209P (SA(2)). Particulars: Staphylococcus aureus, FDA209P, read-out: MIC SA (2). It is filed as cell-based.
Excerpt: as §1
SA(2): Staphylococcus aureus FDA 209P

The test system of assay [5] is Bacillus subtilis. As to the kind of experiment: MIC, Bacillus subtilis (BS). It is filed as cell-based. Particulars: read-out: MIC BS.
Assay [6] relates to Bacillus cereus IFO 3001. As to the kind of experiment: MIC, Bacillus cereus IFO 3001 (BC). It is filed as cell-based. The following applies: Bacillus cereus.
Assay [7] relates to Escherichia coli NIHJ. Briefly: MIC, Escherichia coli NIHJ (EC). It is filed as cell-based.
For assay [8], the system named is Klebsiella pneumoniae ATCC 10031. As to the kind of experiment: MIC, Klebsiella pneumoniae ATCC 10031 (KP). It is filed as cell-based.

In brackets after ≈: the same amount, converted by molar mass. Read-outs that look alike come from different tables or passages of the source. A value given as a limit tells only on which side of the number the result lay.

Consider `C#CC[N+](C)(C)[C@H]1C[C@@H](C)O[C@@H](O[C@@H]2[C@@H](C)[C@H](O[C@H]3C[C@@](C)(OC)[C@@H](O)[C@H](C)O3)[C@@H](C)C(=O)O[C@H](CC)[C@@](C)(O)[C@H](O)[C@@H](C)C3=C(C)C[C@@]2(C)O3)[C@@H]1O` [8,9-anhydroerythromycin A 6,9-hemiketal propargyl chloride], for which the Survival rate in assay [1] (1.0 ppm in feed, 0-7 days) stood at 97.5%; in assay [1] (1.0 ppm in feed, 0-14 days) it was 97.5%; in assay [1] (10.0 ppm in feed, 0-7 days), 100.0%; in assay [1] (10.0 ppm in feed, 0-14 days), 100.0%; in assay [1] (100.0 ppm in feed, 0-7 days), 100.0%; in assay [1] (100.0 ppm in feed, 0-14 days), 100.0%. Besides, the “Gain (Ratio)” value in assay [1] (1.0 ppm in feed, 0-7 days) was 105.7; in assay [1] (1.0 ppm in feed, 0-14 days), 105.3; in assay [1] (10.0 ppm in feed, 0-7 days) it was 105.0; in assay [1] (10.0 ppm in feed, 0-14 days), 103.7; in assay [1] (100.0 ppm in feed, 0-7 days) it was 111.4; in assay [1] (100.0 ppm in feed, 0-14 days), 107.4. For the same compound, the Gain in assay [1] (1.0 ppm in feed, 0-7 days) is 84.1 g/cockerel; in assay [1] (1.0 ppm in feed, 0-14 days), 258.2 g/cockerel; in assay [1] (10.0 ppm in feed, 0-7 days) it was 83.5 g/cockerel; in assay [1] (10.0 ppm in feed, 0-14 days) it was 254.3 g/cockerel; in assay [1] (100.0 ppm in feed, 0-7 days), 88.6 g/cockerel; in assay [1] (100.0 ppm in feed, 0-14 days) it was 263.3 g/cockerel. The “Number of Cl. perfringens” value in assay [2] (1.0 ppm (section 2), day 0) was determined as 2.0 log CFU/g; in assay [2] (1.0 ppm (section 2), day 7) it was 6.1 log CFU/g; in assay [2] (10.0 ppm (section 3), day 0) it was 2.0 log CFU/g; in assay [2] (10.0 ppm (section 3), day 7), 4.9 log CFU/g; in assay [2] (100.0 ppm (section 4), day 0), 2.0 log CFU/g; in assay [2] (100.0 ppm (section 4), day 7), 6.2 log CFU/g.

As for `CC[C@H]1OC(=O)[C@H](C)[C@@H](O[C@H]2C[C@@](C)(OC)[C@@H](O)[C@H](C)O2)[C@H](C)[C@@H](O[C@@H]2O[C@H](C)C[C@H](N(C)CC)[C@H]2O)[C@@]2(C)CC(C)=C(O2)[C@H](C)[C@@H](O)[C@]1(C)O` [ethyl-nor-8,9-anhydroerythromycin A 6,9-hemiketal], the Survival rate is on record as 97.5% in assay [1] (1.0 ppm in feed, 0-7 days); 97.5% in assay [1] (1.0 ppm in feed, 0-14 days); 97.5% in assay [1] (10.0 ppm in feed, 0-7 days); 95.0% in assay [1] (10.0 ppm in feed, 0-14 days); 100.0% in assay [1] (100.0 ppm in feed, 0-7 days); 100.0% in assay [1] (100.0 ppm in feed, 0-14 days). Further, the “Gain (Ratio)” value in assay [1] (1.0 ppm in feed, 0-7 days) is 103.1; in assay [1] (1.0 ppm in feed, 0-14 days) it was 106.8; in assay [1] (10.0 ppm in feed, 0-7 days) it was 98.3; in assay [1] (10.0 ppm in feed, 0-14 days), 102.6; in assay [1] (100.0 ppm in feed, 0-7 days) it was 104.3; in assay [1] (100.0 ppm in feed, 0-14 days), 105.4. Further, the Gain in assay [1] (1.0 ppm in feed, 0-7 days) was 85.7 g/cockerel; in assay [1] (1.0 ppm in feed, 0-14 days), 263.3 g/cockerel; in assay [1] (10.0 ppm in feed, 0-7 days), 81.7 g/cockerel; in assay [1] (10.0 ppm in feed, 0-14 days) it was 253.1 g/cockerel; in assay [1] (100.0 ppm in feed, 0-7 days) it was 86.7 g/cockerel; in assay [1] (100.0 ppm in feed, 0-14 days) it was 259.8 g/cockerel. The “Number of Cl. perfringens” value stood at 7.03 log CFU/g in assay [2] (1.0 ppm (section 2), day 0); 7.20 log CFU/g in assay [2] (1.0 ppm (section 2), day 7); 6.83 log CFU/g in assay [2] (10.0 ppm (section 3), day 0); 7.54 log CFU/g in assay [2] (10.0 ppm (section 3), day 7); 6.59 log CFU/g in assay [2] (100.0 ppm (section 4), day 0); 7.17 log CFU/g in assay [2] (100.0 ppm (section 4), day 7).

For orientation: MIC means the lowest concentration that inhibits growth of the organism. For `CC[C@H]1OC(=O)[C@H](C)[C@@H](O[C@H]2C[C@@](C)(OC)[C@@H](O)[C@H](C)O2)[C@H](C)[C@@H](O[C@@H]2O[C@H](C)C[C@H](N(C)C)[C@H]2O)[C@](C)(O)C[C@@H](C)C(=O)[C@H](C)[C@@H](O)[C@]1(C)O` [*3, Erythromycin A, reference compound], the minimum inhibitory concentration (MIC) in assay [3] was 0.2 µg/mL (≈ 0.273 µM); in assay [4], 0.4 µg/mL (≈ 0.545 µM); in assay [5] it was 0.2 µg/mL (≈ 0.273 µM); in assay [6] (IFO3001, read-out: MIC BC), 0.2 µg/mL (≈ 0.273 µM); in assay [7], 25 µg/mL (≈ 34.1 µM); in assay [8] (Klebsiella pneumoniae, ATCC10031, read-out: MIC KP), 6.25 µg/mL (≈ 8.52 µM).

In the case of `CCC1OC(=O)C(C)C(OC2CC(C)(OC)C(O)C(C)O2)C(C)C(OC2OC(C)CC([N+](CC)(CC)CC)C2O)C2(C)CC(C)=C(O2)C(C)C(O)C1(C)O` (stereo not drawn) [Compound 23], the minimal inhibitory concentration (MIC) in assay [3] (Staphylococcus aureus ATCC 6538P) is above 100 µg/mL; in assay [4] (Staphylococcus aureus FDA 209P), above 100 µg/mL; in assay [5], above 100 µg/mL; in assay [6] (IFO3001, Bacillus cereus IFO 3001, read-out: MIC BC), above 100 µg/mL; in assay [7], above 100 µg/mL; in assay [8] (ATCC10031, Klebsiella pneumoniae ATCC 10031, read-out: MIC KP), above 100 µg/mL.

The record behind these values is US4948782A, “A method of promoting the growth of domestic animals with erythromycin derivative containing composition” (Kitasato Kenkyusho, priority 1987, dated 1990).
